Measurements from ChEMBL document CHEMBL3525932, “Comparison of metabolism of sesamin and episesamin by drug-metabolizing enzymes in human liver” (Drug Metab Dispos, 2012).

What was measured:
Cytochrome P450 1A2 [1] = target: T1, Cytochrome P450 1A2 (Homo sapiens, UniProt P05177); test: Activity of recombinant human CYP1A2 expressed in Saccharomyces cerevisiae AH22 cells assessed as enzyme-mediated episesamin dicatechol formation at 2 to 75 uM after 15 mins by HPLC analysis in presence of NADPH; type: ADME, cell-based; details: ah22, 0.25 h
T1 sequence (P05177 whole entry): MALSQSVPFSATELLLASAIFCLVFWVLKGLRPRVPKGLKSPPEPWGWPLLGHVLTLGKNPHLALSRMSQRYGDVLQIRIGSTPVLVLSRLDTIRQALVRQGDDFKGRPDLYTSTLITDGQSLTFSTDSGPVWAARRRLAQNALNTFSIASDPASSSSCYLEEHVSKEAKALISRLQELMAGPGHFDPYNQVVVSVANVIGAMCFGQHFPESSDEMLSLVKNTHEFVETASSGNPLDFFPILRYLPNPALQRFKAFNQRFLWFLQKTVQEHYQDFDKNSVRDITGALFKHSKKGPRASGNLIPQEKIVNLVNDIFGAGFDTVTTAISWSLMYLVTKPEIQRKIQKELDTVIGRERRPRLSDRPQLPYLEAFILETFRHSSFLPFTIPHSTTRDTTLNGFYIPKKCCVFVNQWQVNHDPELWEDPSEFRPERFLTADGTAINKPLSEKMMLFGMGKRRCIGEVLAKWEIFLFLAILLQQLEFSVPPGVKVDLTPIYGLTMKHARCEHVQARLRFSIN

Cytochrome P450 2C9 [2] = target: T2, Cytochrome P450 2C9 (Homo sapiens, UniProt P11712); test: (§1) Mechanism-based inhibition of recombinant human CYP2C9 expressed in microsomes isolated from Saccharomyces cerevisiae AH22 cells assessed as diclofenac 4'-hydroxylation preincubated for 5 to 10 mins followed by substrate addition measured after 15 mins by HPLC analysis; type: ADME, cell-based
CYP2C9 [3] = target: T3, CYP2C9 (Homo sapiens, UniProt P11712); test: as §1; type: ADME, cell-based; details: human, probe diclofenac (4'-hydroxylation)
[4] = Drug metabolism in human liver microsomes assessed as CYP450-mediated catecholization per mg of protein after 10 to 30 mins by HPLC analysis in presence of NADPH; type: ADME
Cytochrome P450 2C9 [5] = target: T2, Cytochrome P450 2C9; test: Activity of recombinant human CYP2C9 expressed in Saccharomyces cerevisiae AH22 cells assessed as enzyme-mediated (S)-episesamin monocatechol formation at 2 to 75 uM after 15 mins by HPLC analysis in presence of NADPH; type: ADME, cell-based; details: ah22, 0.25 h
Cytochrome P450 1A2 [6] = target: T1, Cytochrome P450 1A2; test: Activity of recombinant human CYP1A2 expressed in Saccharomyces cerevisiae AH22 cells assessed as enzyme-mediated (R)-episesamin monocatechol formation at 2 to 75 uM after 15 mins by HPLC analysis in presence of NADPH; type: ADME, cell-based; details: ah22, 0.25 h
Liver microsome [7] = test: Drug metabolism in human liver microsomes assessed as (S)-episesamin monocatechol formation at 5 uM after 15 mins by HPLC analysis in presence of NADPH and anti-CYP2C9 antibody; type: ADME; details: 0.25 h
Cytochrome P450 2D6 = Cytochrome P450 2D6 (Homo sapiens, UniProt P10635); test: Activity of recombinant human CYP2D6 expressed in Saccharomyces cerevisiae AH22 cells assessed as enzyme-mediated catecholization at 2 to 75 uM after 15 mins by HPLC analysis in presence of NADPH; type: ADME, cell-based; details: ah22, 0.25 h
Cytochrome P450 2C19 [8] = target: T4, Cytochrome P450 2C19 (Homo sapiens, UniProt P33261); test: Activity of recombinant human CYP2C19 expressed in Saccharomyces cerevisiae AH22 cells assessed as enzyme-mediated episesamin dicatechol formation at 2 to 75 uM after 15 mins by HPLC analysis in presence of NADPH; type: ADME, cell-based; details: ah22, 0.25 h
Liver microsome [9] = test: Drug metabolism in human liver microsomes assessed as episesamin dicatechol formation at 2 to 75 uM after 15 mins by HPLC analysis in presence of NADPH; type: ADME; details: 0.25 h
CYP2C9 [10] = target: T3, CYP2C9; test: Ratio of Kinact to Ki(app) for mechanism-based inhibition of recombinant human CYP2C9 expressed in microsomes isolated from Saccharomyces cerevisiae AH22 cells assessed as diclofenac 4'-hydroxylation preincubated for 5 to 10 mins followed by substrate addition measured after 15 mins by HPLC analysis; type: ADME, cell-based; details: probe diclofenac (4'-hydroxylation)
Cytochrome P450 2C9 [11] = target: T2, Cytochrome P450 2C9; test: Mechanism-based inhibition of recombinant human CYP2C9 expressed in microsomes isolated from Saccharomyces cerevisiae AH22 cells assessed as diclofenac 4'-hydroxylation up to 50 uM preincubated for 5 to 10 mins followed by substrate addition measured by HPLC analysis; type: ADME, cell-based
Liver microsome [12] = test: Drug metabolism in human liver microsomes assessed as (R)-episesamin monocatechol formation at 5 uM after 15 mins by HPLC analysis in presence of NADPH and anti-CYP2C9 antibody; type: ADME; details: 0.25 h
Liver microsome [13] = test: Drug metabolism in heat-inactivated human liver microsomes assessed as episesamin dicatechol formation at 2 to 75 uM after 15 mins by HPLC analysis in presence of NADPH; type: ADME; details: 0.25 h
Liver microsome [14] = test: Drug metabolism in human liver microsomes assessed as episesamin monocatecholization at 5 uM after 15 mins by HPLC analysis in presence of NADPH and CYP2C19 inhibitor (+)-N-3-benzylnirvanol; type: ADME; details: 0.25 h
Cytochrome P450 2C19 [15] = target: T4, Cytochrome P450 2C19; test: Activity of recombinant human CYP2C19 expressed in Saccharomyces cerevisiae AH22 cells assessed as enzyme-mediated (S)-episesamin monocatechol formation at 2 to 75 uM after 15 mins by HPLC analysis in presence of NADPH; type: ADME, cell-based; details: ah22, 0.25 h
Liver microsome [16] = test: Drug metabolism in human liver microsomes assessed as (S)-episesamin monocatechol formation at 2 to 75 uM after 15 mins by HPLC analysis in presence of NADPH; type: ADME; details: 0.25 h
[17] = Drug metabolism in Sprague-Dawley rat liver microsomes assessed as CYP450-mediated catecholization per mg of protein after 10 to 30 mins by HPLC analysis in presence of NADPH; type: ADME
Liver microsome [18] = test: Drug metabolism in human liver microsomes assessed as (R)-episesamin monocatechol formation at 5 uM after 15 mins by HPLC analysis in presence of NADPH and anti-CYP1A2 antibody; type: ADME; details: 0.25 h
CYP450 [19] = test: Drug metabolism in Sprague-Dawley rat liver microsomes assessed as CYP450-mediated catecholization after 10 to 30 mins by HPLC analysis in presence of NADPH; type: ADME
Cytochrome P450 2C19 [20] = target: T4, Cytochrome P450 2C19; test: Activity of recombinant human CYP2C19 expressed in Saccharomyces cerevisiae AH22 cells assessed as enzyme-mediated (R)-episesamin monocatechol formation at 2 to 75 uM after 15 mins by HPLC analysis in presence of NADPH; type: ADME, cell-based; details: ah22, 0.25 h
CYP450 [21] = test: Drug metabolism in human liver microsomes assessed as CYP450-mediated catecholization after 10 to 30 mins by HPLC analysis in presence of NADPH; type: ADME
Cytochrome P450 3A4 = Cytochrome P450 3A4 (Homo sapiens, UniProt P08684); test: Activity of recombinant human CYP3A4 expressed in Saccharomyces cerevisiae AH22 cells assessed as enzyme-mediated catecholization at 2 to 75 uM after 15 mins by HPLC analysis in presence of NADPH; type: ADME, cell-based; details: ah22, 0.25 h
Liver microsome [22] = test: Drug metabolism in human liver microsomes assessed as (R)-episesamin monocatechol formation at 5 uM after 30 mins by HPLC analysis in presence of NADPH; type: ADME; details: 0.5 h
Liver microsome [23] = test: Drug metabolism in human liver microsomes assessed as (S)-episesamin monocatechol formation at 5 uM after 30 mins by HPLC analysis in presence of NADPH; type: ADME; details: 0.5 h
Cytochrome P450 2E1 = Cytochrome P450 2E1 (Homo sapiens, UniProt P05181); test: Activity of recombinant human CYP2E1 expressed in Saccharomyces cerevisiae AH22 cells assessed as enzyme-mediated catecholization at 2 to 75 uM after 15 mins by HPLC analysis in presence of NADPH; type: ADME, cell-based; details: ah22, 0.25 h
Cytochrome P450 2C9 [24] = target: T2, Cytochrome P450 2C9; test: Activity of recombinant human CYP2C9 expressed in Saccharomyces cerevisiae AH22 cells assessed as enzyme-mediated (R)-episesamin monocatechol formation at 2 to 75 uM after 15 mins by HPLC analysis in presence of NADPH; type: ADME, cell-based; details: ah22, 0.25 h
Liver microsome [25] = test: Drug metabolism in human liver microsomes assessed as (R)-episesamin monocatechol formation at 2 to 75 uM after 15 mins by HPLC analysis in presence of NADPH; type: ADME; details: 0.25 h
Cytochrome P450 2C9 [26] = target: T2, Cytochrome P450 2C9; test: Activity of recombinant human CYP2C9 expressed in Saccharomyces cerevisiae AH22 cells assessed as enzyme-mediated episesamin dicatechol formation at 2 to 75 uM after 15 mins by HPLC analysis in presence of NADPH; type: ADME, cell-based; details: ah22, 0.25 h
Liver microsome [27] = test: Drug metabolism in human liver microsomes assessed as episesamin monocatecholization at 5 uM after 15 mins by HPLC analysis in presence of NADPH and CYP2C9 inhibitor sulfaphenazole; type: ADME; details: 0.25 h
Liver microsome [28] = test: Drug metabolism in human liver microsomes assessed as (S)-episesamin monocatechol formation at 5 uM after 15 mins by HPLC analysis in presence of NADPH and anti-CYP1A2 antibody; type: ADME; details: 0.25 h

T4 sequence (P33261 whole entry): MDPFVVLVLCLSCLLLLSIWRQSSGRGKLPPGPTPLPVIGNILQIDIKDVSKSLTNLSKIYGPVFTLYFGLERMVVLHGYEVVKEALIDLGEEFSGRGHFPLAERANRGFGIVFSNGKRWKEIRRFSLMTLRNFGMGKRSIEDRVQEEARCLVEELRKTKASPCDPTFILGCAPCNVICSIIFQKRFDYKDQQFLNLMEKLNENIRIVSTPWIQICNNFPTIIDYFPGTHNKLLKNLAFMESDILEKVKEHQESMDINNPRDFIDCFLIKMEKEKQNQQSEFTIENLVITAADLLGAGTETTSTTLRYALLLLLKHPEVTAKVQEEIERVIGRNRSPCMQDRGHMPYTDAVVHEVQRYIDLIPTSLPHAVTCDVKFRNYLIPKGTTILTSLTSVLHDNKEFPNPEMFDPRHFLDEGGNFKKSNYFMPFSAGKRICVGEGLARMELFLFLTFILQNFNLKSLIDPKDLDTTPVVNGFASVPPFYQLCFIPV
T2 sequence (P11712 whole entry): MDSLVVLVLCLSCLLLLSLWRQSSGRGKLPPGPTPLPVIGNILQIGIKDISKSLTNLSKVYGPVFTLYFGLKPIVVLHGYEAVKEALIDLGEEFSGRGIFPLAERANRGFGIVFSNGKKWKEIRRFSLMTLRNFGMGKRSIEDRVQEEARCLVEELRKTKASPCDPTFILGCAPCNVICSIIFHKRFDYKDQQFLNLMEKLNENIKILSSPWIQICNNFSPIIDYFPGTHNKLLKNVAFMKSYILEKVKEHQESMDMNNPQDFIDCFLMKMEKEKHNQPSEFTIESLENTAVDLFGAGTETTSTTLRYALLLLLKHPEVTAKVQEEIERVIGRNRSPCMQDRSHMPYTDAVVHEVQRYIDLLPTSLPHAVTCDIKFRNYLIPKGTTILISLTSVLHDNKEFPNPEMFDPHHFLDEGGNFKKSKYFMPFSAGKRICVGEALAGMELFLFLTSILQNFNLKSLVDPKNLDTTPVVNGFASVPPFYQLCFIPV
T3 sequence (P11712 whole entry): as above
Sequence of Cytochrome P450 2E1 (P05181 whole entry): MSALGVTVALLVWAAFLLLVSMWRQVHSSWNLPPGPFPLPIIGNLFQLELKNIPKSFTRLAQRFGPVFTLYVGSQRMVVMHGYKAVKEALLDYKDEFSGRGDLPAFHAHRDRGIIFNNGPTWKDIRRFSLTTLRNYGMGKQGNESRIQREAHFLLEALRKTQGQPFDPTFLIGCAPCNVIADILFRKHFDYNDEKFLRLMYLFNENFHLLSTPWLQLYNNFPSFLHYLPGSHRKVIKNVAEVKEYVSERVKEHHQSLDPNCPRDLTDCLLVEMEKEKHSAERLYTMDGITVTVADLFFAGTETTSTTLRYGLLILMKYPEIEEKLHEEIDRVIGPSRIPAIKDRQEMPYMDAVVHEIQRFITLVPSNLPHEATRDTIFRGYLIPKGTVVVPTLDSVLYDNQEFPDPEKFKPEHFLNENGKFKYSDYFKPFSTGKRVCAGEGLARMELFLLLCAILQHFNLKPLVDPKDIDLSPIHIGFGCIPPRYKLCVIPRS
Sequence of Cytochrome P450 3A4 (P08684 whole entry): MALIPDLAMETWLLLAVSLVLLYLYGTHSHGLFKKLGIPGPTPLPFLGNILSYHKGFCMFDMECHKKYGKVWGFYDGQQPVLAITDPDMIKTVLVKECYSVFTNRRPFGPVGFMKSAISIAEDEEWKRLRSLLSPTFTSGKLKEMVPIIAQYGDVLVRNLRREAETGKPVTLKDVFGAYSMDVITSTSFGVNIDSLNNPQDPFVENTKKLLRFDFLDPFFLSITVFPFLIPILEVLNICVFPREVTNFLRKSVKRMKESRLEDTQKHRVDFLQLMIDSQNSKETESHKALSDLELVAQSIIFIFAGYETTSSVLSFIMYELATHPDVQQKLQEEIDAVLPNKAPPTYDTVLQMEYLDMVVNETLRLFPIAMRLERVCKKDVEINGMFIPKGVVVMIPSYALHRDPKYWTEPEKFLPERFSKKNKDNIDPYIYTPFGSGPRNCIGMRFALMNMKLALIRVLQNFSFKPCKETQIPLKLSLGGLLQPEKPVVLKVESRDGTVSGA
Sequence of Cytochrome P450 2D6 (P10635 whole entry): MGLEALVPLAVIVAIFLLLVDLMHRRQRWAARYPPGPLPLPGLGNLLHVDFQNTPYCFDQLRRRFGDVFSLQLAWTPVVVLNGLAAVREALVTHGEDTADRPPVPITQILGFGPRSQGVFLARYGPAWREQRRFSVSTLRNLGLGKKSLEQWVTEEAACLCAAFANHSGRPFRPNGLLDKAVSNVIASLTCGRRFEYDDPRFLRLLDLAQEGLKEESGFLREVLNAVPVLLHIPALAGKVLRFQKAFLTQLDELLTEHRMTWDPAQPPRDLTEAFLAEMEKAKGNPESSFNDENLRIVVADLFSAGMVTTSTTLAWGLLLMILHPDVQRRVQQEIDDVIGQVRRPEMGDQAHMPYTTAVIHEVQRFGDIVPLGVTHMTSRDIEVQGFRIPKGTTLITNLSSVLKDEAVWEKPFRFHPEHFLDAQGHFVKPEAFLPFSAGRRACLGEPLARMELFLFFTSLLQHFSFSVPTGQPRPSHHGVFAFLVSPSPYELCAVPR

Question: What does the source list for `c1cc2c(cc1[C@H]1OC[C@H]3[C@@H]1CO[C@H]3c1ccc3c(c1)OCO3)OCO2` [ASARININ]?
Answer: Drug metabolism (Cytochrome P450 1A2 [1]): metabolite_not_detected; inhibition (INH) (Cytochrome P450 2C9 [2]; human, microsomes, 0.25 h): Dose-dependent effect; Ki (Cytochrome P450 2C9 [2]; read-out: Ki(app)): 6.8 µM; kinact at 0.25 h (CYP2C9 [3]): 0.00283 s⁻¹; Vmax [4]: 0.4 nmol/min/mg; Drug metabolism (Cytochrome P450 2C9 [5]): metabolite_detected; Drug metabolism (Cytochrome P450 1A2 [6]): metabolite_detected; Drug metabolism (Liver microsome [7]): metabolite_not_detected; Drug metabolism (Cytochrome P450 2D6): metabolite_not_detected; Drug metabolism (Cytochrome P450 2C19 [8]): metabolite_detected; Drug metabolism (Liver microsome [9]): metabolite_detected; kinact/KI at 0.25 h (CYP2C9 [10]): 417 M⁻¹ s⁻¹; inhibition (INH) (Cytochrome P450 2C9 [11]): Dose-dependent effect; Drug metabolism (Liver microsome [12]): metabolite_not_detected; Drug metabolism (Liver microsome [13]): metabolite_not_detected; Drug metabolism (Liver microsome [14]): metabolite_detected; Drug metabolism (Cytochrome P450 2C19 [15]): metabolite_detected; Drug metabolism (Liver microsome [16]): metabolite_detected; Vmax [17]: 6.3 nmol/min/mg; Drug metabolism (Liver microsome [18]): metabolite_not_detected; Km (CYP450 [19]): 16 µM; Drug metabolism (Cytochrome P450 2C19 [20]): metabolite_detected; Km (CYP450 [21]): 13 µM; Drug metabolism (Cytochrome P450 3A4): metabolite_not_detected; Drug metabolism (Liver microsome [22]): metabolite_detected; Drug metabolism (Liver microsome [23]): metabolite_detected; Drug metabolism (Cytochrome P450 2E1): metabolite_not_detected; Drug metabolism (Cytochrome P450 2C9 [24]): metabolite_detected; Drug metabolism (Liver microsome [25]): metabolite_detected; Drug metabolism (Cytochrome P450 2C9 [26]): metabolite_not_detected; Drug metabolism (Liver microsome [27]): metabolite_not_detected; Drug metabolism (Liver microsome [28]): metabolite_detected
